Experimental data as given in article PMC6544242, “Development and validation of a multiplex UHPLC-MS/MS method for the determination of the investigational antibiotic against multi-resistant tuberculosis macozinone (PBTZ169) and five active metabolites in human plasma” (PLoS ONE, 2019).

Tested on: not given
Assay: not given
Settings: human, 1 h, 10 ng/mL

SMILES | % from t0 [%]
O=C(C1CCCCC1)N1CCN(c2nc(=O)c3cc(C(F)(F)F)cc([N+](=O)[O-])c3s2)CC1 [Met oxo] | 1

Same assay, conditions: human, 1 h, 20 ng/mL

SMILES | % from t0 [%]
O=C(C1CCCCC1)N1CCN(c2nc(=O)c3cc(C(F)(F)F)cc([N+](=O)[O-])c3s2)CC1 [Met oxo] | 1

Same assay, conditions: human, 1 h, 50 ng/mL

SMILES | % from t0 [%]
O=C(C1CCCCC1)N1CCN(c2nc(=O)c3cc(C(F)(F)F)cc([N+](=O)[O-])c3s2)CC1 [Met oxo] | -1

Same assay, conditions: human, 1 h, 100 ng/mL

SMILES | % from t0 [%]
O=C(C1CCCCC1)N1CCN(c2nc(=O)c3cc(C(F)(F)F)cc([N+](=O)[O-])c3s2)CC1 [Met oxo] | -1

Same assay, conditions: human, 1 h, 200 ng/mL

SMILES | % from t0 [%]
O=C(C1CCCCC1)N1CCN(c2nc(=O)c3cc(C(F)(F)F)cc([N+](=O)[O-])c3s2)CC1 [Met oxo] | 0

Same assay, conditions: human, 1 h, 500 ng/mL

SMILES | % from t0 [%]
O=C(C1CCCCC1)N1CCN(c2nc(=O)c3cc(C(F)(F)F)cc([N+](=O)[O-])c3s2)CC1 [Met oxo] | -5

Same assay, conditions: human, 2 h, 10 ng/mL

SMILES | % from t0 [%]
O=C(C1CCCCC1)N1CCN(c2nc(=O)c3cc(C(F)(F)F)cc([N+](=O)[O-])c3s2)CC1 [Met oxo] | -3

Same assay, conditions: human, 2 h, 20 ng/mL

SMILES | % from t0 [%]
O=C(C1CCCCC1)N1CCN(c2nc(=O)c3cc(C(F)(F)F)cc([N+](=O)[O-])c3s2)CC1 [Met oxo] | -4

Same assay, conditions: human, 2 h, 50 ng/mL

SMILES | % from t0 [%]
O=C(C1CCCCC1)N1CCN(c2nc(=O)c3cc(C(F)(F)F)cc([N+](=O)[O-])c3s2)CC1 [Met oxo] | -8

Same assay, conditions: human, 2 h, 100 ng/mL

SMILES | % from t0 [%]
O=C(C1CCCCC1)N1CCN(c2nc(=O)c3cc(C(F)(F)F)cc([N+](=O)[O-])c3s2)CC1 [Met oxo] | -3

Same assay, conditions: human, 2 h, 200 ng/mL

SMILES | % from t0 [%]
O=C(C1CCCCC1)N1CCN(c2nc(=O)c3cc(C(F)(F)F)cc([N+](=O)[O-])c3s2)CC1 [Met oxo] | 1

Same assay, conditions: human, 2 h, 500 ng/mL

SMILES | % from t0 [%]
O=C(C1CCCCC1)N1CCN(c2nc(=O)c3cc(C(F)(F)F)cc([N+](=O)[O-])c3s2)CC1 [Met oxo] | -5

Same assay, conditions: human, 4 h, 10 ng/mL

SMILES | % from t0 [%]
O=C(C1CCCCC1)N1CCN(c2nc(=O)c3cc(C(F)(F)F)cc([N+](=O)[O-])c3s2)CC1 [Met oxo] | -1

Same assay, conditions: human, 4 h, 20 ng/mL

SMILES | % from t0 [%]
O=C(C1CCCCC1)N1CCN(c2nc(=O)c3cc(C(F)(F)F)cc([N+](=O)[O-])c3s2)CC1 [Met oxo] | 0

Same assay, conditions: human, 4 h, 50 ng/mL

SMILES | % from t0 [%]
O=C(C1CCCCC1)N1CCN(c2nc(=O)c3cc(C(F)(F)F)cc([N+](=O)[O-])c3s2)CC1 [Met oxo] | -6

Same assay, conditions: human, 4 h, 100 ng/mL

SMILES | % from t0 [%]
O=C(C1CCCCC1)N1CCN(c2nc(=O)c3cc(C(F)(F)F)cc([N+](=O)[O-])c3s2)CC1 [Met oxo] | -4

Same assay, conditions: human, 4 h, 200 ng/mL

SMILES | % from t0 [%]
O=C(C1CCCCC1)N1CCN(c2nc(=O)c3cc(C(F)(F)F)cc([N+](=O)[O-])c3s2)CC1 [Met oxo] | 1

Same assay, conditions: human, 4 h, 500 ng/mL

SMILES | % from t0 [%]
O=C(C1CCCCC1)N1CCN(c2nc(=O)c3cc(C(F)(F)F)cc([N+](=O)[O-])c3s2)CC1 [Met oxo] | -8

Tested on: Mycobacterium tuberculosis
Assay: not given
Settings: not measured in this paper; cited from earlier work

SMILES | anti-TB activity in vitro (active / inactive)
O=C(C1CCCCC1)N1CCN(c2nc(=O)c3cc(C(F)(F)F)cc([N+](=O)[O-])c3s2)CC1 [Met oxo] | active

Tested on: not given
Assay: not given
Settings: human, 6 h, 0.5 ng/mL

SMILES | % from freshly processed samples (n=2) [%]
O=C(C1CCCCC1)N1CCN(c2nc(=O)c3cc(C(F)(F)F)cc([N+](=O)[O-])c3s2)CC1 [Met oxo] | -11

Same assay, conditions: human, 6 h, 1 ng/mL

SMILES | % from freshly processed samples (n=2) [%]
O=C(C1CCCCC1)N1CCN(c2nc(=O)c3cc(C(F)(F)F)cc([N+](=O)[O-])c3s2)CC1 [Met oxo] | -12

Same assay, conditions: human, 6 h, 2 ng/mL

SMILES | % from freshly prepared samples [%] | % from freshly processed samples (n=2) [%]
O=C(C1CCCCC1)N1CCN(c2nc(=O)c3cc(C(F)(F)F)cc([N+](=O)[O-])c3s2)CC1 [Met oxo] | -6 | -6

Same assay, conditions: human, 6 h, 50 ng/mL

SMILES | % from freshly processed samples (n=2) [%]
O=C(C1CCCCC1)N1CCN(c2nc(=O)c3cc(C(F)(F)F)cc([N+](=O)[O-])c3s2)CC1 [Met oxo] | -10

Same assay, conditions: human, 6 h, 150 ng/mL

SMILES | % from freshly prepared samples [%]
O=C(C1CCCCC1)N1CCN(c2nc(=O)c3cc(C(F)(F)F)cc([N+](=O)[O-])c3s2)CC1 [Met oxo] | -8

Same assay, conditions: human, 6 h, 500 ng/mL

SMILES | % from freshly processed samples (n=2) [%]
O=C(C1CCCCC1)N1CCN(c2nc(=O)c3cc(C(F)(F)F)cc([N+](=O)[O-])c3s2)CC1 [Met oxo] | -8

Same assay, conditions: human, 6 h, 1000 ng/mL

SMILES | % from freshly processed samples (n=2) [%]
O=C(C1CCCCC1)N1CCN(c2nc(=O)c3cc(C(F)(F)F)cc([N+](=O)[O-])c3s2)CC1 [Met oxo] | -3

Same assay, conditions: human, 6 h, 1500 ng/mL

SMILES | % from freshly prepared samples [%]
O=C(C1CCCCC1)N1CCN(c2nc(=O)c3cc(C(F)(F)F)cc([N+](=O)[O-])c3s2)CC1 [Met oxo] | -5

Same assay, conditions: human, 6 h, 2000 ng/mL

SMILES | % from freshly processed samples (n=2) [%]
O=C(C1CCCCC1)N1CCN(c2nc(=O)c3cc(C(F)(F)F)cc([N+](=O)[O-])c3s2)CC1 [Met oxo] | -3

Tested on: not given
Assay: not given
Settings: processed extract sample, 4°C, 24h, level H (QC 1500 ng/mL)

SMILES | % from t0 [%]
O=C(C1CCCCC1)N1CCN(c2nc(=O)c3cc(C(F)(F)F)cc([N+](=O)[O-])c3s2)CC1 [Met oxo] | 4

Same assay, conditions: processed extract sample, 4°C, 24h, level L (QC 2 ng/mL)

SMILES | % from t0 [%]
O=C(C1CCCCC1)N1CCN(c2nc(=O)c3cc(C(F)(F)F)cc([N+](=O)[O-])c3s2)CC1 [Met oxo] | -3

Same assay, conditions: processed extract sample, 4°C, 24h, level M (QC 150 ng/mL)

SMILES | % from t0 [%]
O=C(C1CCCCC1)N1CCN(c2nc(=O)c3cc(C(F)(F)F)cc([N+](=O)[O-])c3s2)CC1 [Met oxo] | 5

Same assay, conditions: processed extract sample, RT, 24h, level H (QC 1500 ng/mL)

SMILES | % from t0 [%]
O=C(C1CCCCC1)N1CCN(c2nc(=O)c3cc(C(F)(F)F)cc([N+](=O)[O-])c3s2)CC1 [Met oxo] | 25

Same assay, conditions: processed extract sample, RT, 24h, level L (QC 2 ng/mL)

SMILES | % from t0 [%]
O=C(C1CCCCC1)N1CCN(c2nc(=O)c3cc(C(F)(F)F)cc([N+](=O)[O-])c3s2)CC1 [Met oxo] | 6

Same assay, conditions: processed extract sample, RT, 24h, level M (QC 150 ng/mL)

SMILES | % from t0 [%]
O=C(C1CCCCC1)N1CCN(c2nc(=O)c3cc(C(F)(F)F)cc([N+](=O)[O-])c3s2)CC1 [Met oxo] | 29

Tested on: not listed separately
Assay: Phase Ia clinical pharmacokinetic trial, plasma levels in healthy volunteers
Settings: human
Description: The phase 1a clinical study assessing the safety and pharmacokinetics of PBTZ169 in healthy volunteers (NCT03423030), was performed at the Service of Clinical Pharmacology of the Lausanne University Hospital and was approved on 06.09.2017 (2017–01241) by the Ethics Committee of the Canton of Vaud (CER-VD) and on 17.11.2017 (2017DR1171) by Swissmedic. All volunteers gave their written informed consent.
The concentration measured in this plasma sample is 464 ng/mL, 147 ng/mL, 13 ng/mL, 12 ng/mL and 2 ng/mL for PBTZ169, Met 3-OH, Met 3-oxo, Met amino and Met 1-OH, respectively. […] Of note, measured plasma levels were multiplied by the factor 1.1 accounting for the blood 10:1 dilution due to citrate solution.

SMILES | detection in vivo in plasma
O=C(C1CCCCC1)N1CCN(c2nc(=O)c3cc(C(F)(F)F)cc([N+](=O)[O-])c3s2)CC1 [Met oxo] | not detected
